Paper PMC4498954 (Inorganic chemistry, 2010)

Target: methemoglobin (metHb, human hemoglobin, Fe(III) form) (Homo sapiens, UniProt P68871+P69905)
Sequence (P69905 2-142): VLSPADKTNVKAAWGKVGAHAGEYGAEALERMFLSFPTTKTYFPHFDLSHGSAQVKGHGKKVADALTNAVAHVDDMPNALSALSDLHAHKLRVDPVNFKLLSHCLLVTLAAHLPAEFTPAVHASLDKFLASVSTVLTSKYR
Sequence (P68871 2-147): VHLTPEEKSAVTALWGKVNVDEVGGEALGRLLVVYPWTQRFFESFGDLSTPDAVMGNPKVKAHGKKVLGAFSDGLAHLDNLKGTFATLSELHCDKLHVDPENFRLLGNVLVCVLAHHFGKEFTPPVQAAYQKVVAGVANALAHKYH

`O=NO` [nitrite] was tested, and the Kd was 1.24 ± 0.5 mM.
